Measured values published in publication PMC9558510 (Cancers, 2022).
Blank lines part the entries; values can stand above or below the compound they belong to.

Experiments:
[1] = Adverse events (CTCAE v5.0), dose reductions and treatment discontinuations; type: in vivo, human; conditions: for patients with dose reduction of the named drug due to AE during the study period: 27 patients
Text: AE was routinely assessed by the treating physicians at each serum sampling time point and graded according to the […] (CTCAE) Version 5.0 [35]. Additionally, permanent and temporary treatment discontinuations, dose reductions, and corresponding reasons were documented. Further recorded patient data included age, sex, height, weight, smoking status, dosing regimen, co-medication, and relevant laboratory parameters if ordered by the treating physician (platelet count, white blood cell count, absolute neutrophil count, absolute lymphocyte count, hemoglobin, bilirubin, aspartate and alanine aminotransferase, alkaline phosphatase, gamma-glutamyl transferase, amylase, lipase, creatine kinase, phosphate, sodium, glucose, serum creatinine, and estimated glomerular filtration rate). The treatment and frequency of visits were managed by the treating physicians without knowing the measured drug concentrations. AE was not assessed simultaneously with the collection of VAMS samples.

[2] = Logistic regression of dose reduction/discontinuation vs predicted exposure; type: in vivo, human; conditions: for relationship between dose reduction or discontinuation due to AE and predicted serum trough concentrations or AUCτ: logistic regression, standard dosing assumed
Method: Data were collected and processed using Microsoft Excel 2016 Version 16.0 (Microsoft Corporation, Redmond, WA, USA). Statistical calculations and visualization of results were performed with R Studio Version 1.2.5042 (RStudio Incorporation, Boston, MA, USA) running R version 4.0.5 (R Foundation for Statistical Computing, Vienna, Austria, 2020). For further analysis, serum concentrations were divided into groups according to time interval post-dose as follows: 0–5 h, 5–10 h, 10–14 h, and >14 h for (hydroxy-)dabrafenib and 0–10 h, 10–20 h, 20–30 h, and >30 h for trametinib. Concentrations < LLOQ were excluded from further statistical analyses. The concentrations of the same patient at the same dosage and within the same post-dose group were summarized into an individual mean serum concentration for descriptive statistical analysis to account for potential bias caused by the unbalanced number of samples per patient. […] The Wilcoxon […] test was used for unpaired samples. The correlations between individual PK parameters sampled from the conditional distribution during the generation of EBE (methods for estimation see below) and age, sex, body mass index (BMI), and co-medication were analyzed using analysis of variance (ANOVA) and Spearman’s correlation coefficient. Logistic regression was used to compare the risk of treatment discontinuations or dose reductions (dabrafenib dose reduction or discontinuation, trametinib dose reduction or discontinuation, or any dose reduction or discontinuation) with the corresponding predicted trough concentrations and area under the curve of a dosing interval (AUCτ) of dabrafenib, hydroxy-dabrafenib, and trametinib as well as with the composite predicted dabrafenib/hydroxy-dabrafenib trough concentration and with composite dabrafenib/hydroxy-dabrafenib AUCτ assuming standard dosing. The Hosmer–Lemeshow test was used to evaluate the goodness of fit for our logistic regression model. Due to the explorative nature of the study, p-values obtained from multiple comparisons were not corrected for multiple testing. A p-value < 0.05 was considered statistically significant.

[3] = popPK model-informed VAMS-to-serum conversion model (self-sampled capillary blood); type: in vivo, human; conditions: for Ind V1/F / Ind CL/F / Ind Q/F: at-home VAMS; for Ind Kbp: MAP estimate from at least one paired sample
Method: In addition to serum sampling, patients were asked to participate in the sampling of capillary blood in the clinic and at home. Micro-sampling was not obligatory for enrollment in the study. Micro-sampling was performed from a finger by drawing 20 µL of capillary blood onto the VAMS device MITRA® purchased from Neoteryx (Torrance, CA, USA). During outpatient visits, micro-sampling was conducted by medical staff in parallel to serum sampling. A maximum of six corresponding serum/VAMS samples were collected per patient. Additionally, patients were asked to perform at-home sampling after being instructed by trained staff. For each at-home sampling occasion, patients received a set including four VAMS devices. Patients were instructed to perform sampling at four different time points during the following four time slots: 9 a.m.–12 p.m., 12–3 p.m., 3–6 p.m., and 6–9 p.m. […] Samples collected during different time slots were still accepted. The time of last drug administration and sampling times were self-documented on a specific form. No special storage conditions were specified, and patients were asked to keep samples at ambient temperature until shipment. Samples were sent to the laboratory in an airtight and opaque bag containing desiccant for analysis. At-home samples were collected at up to four occasions per patient. Hematocrit was documented from the results of routine blood withdrawal for VAMS samples collected during outpatient visits. For at-home samples, the last known hematocrit was used. […]
The conversion was based on a hematocrit-dependent formula (Figure 1). […] As proposed by Iacuzzi et al., the blood cell to plasma partition coefficient (Kbp) and intraindividual variability (IIV) were included in the conversion model and estimated from the consolidated data (Figure 1). For this purpose and to evaluate the conversion models, all the serum (Supplementary Table S1) and VAMS concentrations (collected at home or in the clinic) (Supplementary Table S2) were consolidated in a single dataset and fitted to the combined model using the EBE in Monolix 2021R1 (Lixoft SAS, Antony, France). Incorrectly sampled VAMS were removed from the dataset. The resulting individual predicted VAMS concentrations were compared with the observed VAMS concentrations. […] For trametinib, at least one paired sample per patient was included to generate the individual estimate for Kbp. A visual predictive check was performed to evaluate the predictive performance of the method.
Figure 1 Development of the population pharmacokinetic (popPK) model-informed VAMS-to-serum conversion model. PopPK models by Balakirouchenane et al. were used to generate serum maximum a posteriori (MAP) estimates from volumetric absorptive micro-sampling (VAMS) for dabrafenib (A) and trametinib (B).

[4] = set-up: method as in PMID 32283865; conditions: popPK model population value; cited from earlier work
[5] = MAP estimate, patient DT002, 2 mg/24 h
[6] = MAP estimate, patient DT010, 2 mg/24 h
[7] = MAP estimate, patient DT014, 2 mg/24 h
[8] = MAP estimate, patient DT018, 1 mg/24 h
[9] = MAP estimate, patient DT019, 1.5 mg/24 h
[10] = MAP estimate, patient DT026, 2 mg/24 h
[11] = MAP estimate, patient DT027, 2 mg/24 h

Ind V1/F ([3]; MAP estimate, patient DT002, 150 mg/12 h): 30.8 L
Ind V1/F ([3]; MAP estimate, patient DT005, 150 mg/12 h): 24.7 L
Ind V1/F ([3]; MAP estimate, patient DT010, 150 mg/12 h): 14.3 L
Ind V1/F ([3]; MAP estimate, patient DT014, 150 mg/12 h): 30.2 L
Ind V1/F ([3]; MAP estimate, patient DT018, 150 mg/12 h): 82.5 L
Ind V1/F ([3]; MAP estimate, patient DT019, 150 mg/12 h): 39.5 L
Ind V1/F ([3]; MAP estimate, patient DT026, 100 mg/12 h): 40.3 L
Ind V1/F ([3]; MAP estimate, patient DT027, 150 mg/12 h): 71.5 L
Ind CL/F ([3]; patient DT002, occasion 1, 150 mg/12 h): 13.5 L/h
Ind CL/F ([3]; patient DT002, occasion 2, 150 mg/12 h): 17.2 L/h
Ind CL/F ([3]; patient DT002, occasion 3, 150 mg/12 h): 21.1 L/h
Ind CL/F ([3]; patient DT005, occasion 1, 150 mg/12 h): 20.7 L/h
Ind CL/F ([3]; patient DT010, occasion 1, 150 mg/12 h): 18.5 L/h
Ind CL/F ([3]; patient DT010, occasion 2, 150 mg/12 h): 33.3 L/h
Ind CL/F ([3]; patient DT010, occasion 3, 150 mg/12 h): 12.1 L/h
Ind CL/F ([3]; patient DT014, occasion 1, 150 mg/12 h): 30.1 L/h
Ind CL/F ([3]; patient DT018, occasion 1, 150 mg/12 h): 24.7 L/h
Ind CL/F ([3]; patient DT018, occasion 2, 150 mg/12 h): 14.9 L/h
Ind CL/F ([3]; patient DT018, occasion 3, 150 mg/12 h): 37.5 L/h
Ind CL/F ([3]; patient DT018, occasion 4, 150 mg/12 h): 32.3 L/h
Ind CL/F ([3]; patient DT019, occasion 1, 150 mg/12 h): 33.1 L/h
Ind CL/F ([3]; patient DT019, occasion 2, 150 mg/12 h): 15.8 L/h
Ind CL/F ([3]; patient DT019, occasion 3, 150 mg/12 h): 9.8 L/h
Ind CL/F ([3]; patient DT019, occasion 4, 150 mg/12 h): 24.2 L/h
Ind CL/F ([3]; patient DT026, occasion 1, 100 mg/12 h): 33.3 L/h
Ind CL/F ([3]; patient DT026, occasion 2, 100 mg/12 h): 41.1 L/h
Ind CL/F ([3]; patient DT026, occasion 3, 100 mg/12 h): 38.7 L/h
Ind CL/F ([3]; patient DT027, occasion 1, 150 mg/12 h): 28.6 L/h
Ind CL/F ([3]; patient DT027, occasion 2, 150 mg/12 h): 23.2 L/h
Ind CL/F ([3]; patient DT027, occasion 3, 150 mg/12 h): 36.5 L/h
Compound: CC(C)(C)c1nc(-c2cccc(NS(=O)(=O)c3c(F)cccc3F)c2F)c(-c2ccnc(N)n2)s1 [dabrafenib]
patients with dose reduction of the named drug due to AE during the study period [1]: 7.4%
dose reduction n (%) ([1]; none): 24 (88.9) n (%)
permanent treatment discontinuation n (%) ([1]; none): 19 (70.4) n (%)
temporary treatment discontinuation n (%) ([1]; none): 17 (63.0) n (%)
permanent treatment discontinuation n (%) ([1]; reason: adverse events): 2 (7.4) n (%)
relationship between dose reduction or discontinuation due to AE and predicted serum trough concentrations or AUCτ [2]: no significant relationships
CENT (central compartment) volume [4]: 39.5 L
CL/F (oral clearance from central compartment) [4]: 17.7 L/h
PER (peripheral compartment) volume [4]: 19.6 L
Tlag (lag time before beginning of absorption process) [4]: 0.5 h
ka (absorption rate constant) [4]: 1.8 h⁻¹

effect of Cmin on probability of dose reduction or treatment discontinuation (logistic regression) ([2]; predicted trough concentration as exposure surrogate, intercept -0.349, p-value 0.0798): 0.06178
Ind Kbp ([3]; patient DT002): 4.84
Ind Kbp ([3]; patient DT010): 4.98
Ind Kbp ([3]; patient DT014): 5.36
Ind Kbp ([3]; patient DT018): 3.89
Ind Kbp ([3]; patient DT019): 3.91
Ind Kbp ([3]; patient DT026): 4.38
Ind Kbp ([3]; patient DT027): 4.41
Ind CL/F [3, 5]: 6.07 L/h
Ind Q/F [3, 5]: 97.65 L/h
Ind CL/F [3, 6]: 6.63 L/h
Ind Q/F [3, 6]: 125.55 L/h
Ind CL/F [3, 7]: 8.36 L/h
Ind Q/F [3, 7]: 129.17 L/h
Ind CL/F [3, 8]: 3.52 L/h
Ind Q/F [3, 8]: 185.04 L/h
Ind CL/F [3, 9]: 3.79 L/h
Ind Q/F [3, 9]: 77.82 L/h
Ind CL/F [3, 10]: 6.25 L/h
Ind Q/F [3, 10]: 106.5 L/h
Ind CL/F [3, 11]: 6.95 L/h
Ind Q/F [3, 11]: 65.04 L/h
population value for Kbp (blood cell to plasma partition coefficient) ([3]; estimated from combined serum and VAMS dataset): 4.62
IIV of ωKbp ([3]; extended trametinib model): 0.31
Compound: CC(=O)Nc1cccc(-n2c(=O)n(C3CC3)c(=O)c3c(Nc4ccc(I)cc4F)n(C)c(=O)c(C)c32)c1 [trametinib]
patients with dose reduction of the named drug due to AE during the study period [1]: 3.7%
patients who discontinued the named drug(s) permanently due to AE ([1]; both drugs, or only trametinib): 3.7%
dose reduction n (%) ([1]; none): 21 (77.8) n (%)
permanent treatment discontinuation n (%) ([1]; none): 18 (66.7) n (%)
temporary treatment discontinuation n (%) ([1]; none): 17 (63.0) n (%)
permanent treatment discontinuation n (%) ([1]; reason: adverse events): 3 (11.1) n (%)
relationship between dose reduction or discontinuation due to AE and predicted serum trough concentrations or AUCτ [2]: no significant relationships
CENT (central compartment) volume [4]: 61.9 L
CL/F (oral clearance from central compartment) [4]: 5.83 L/h
PER (peripheral compartment) volume [4]: 417 L
Tlag (lag time before beginning of absorption process) [4]: 0.709 h
ka (absorption rate constant) [4]: 0.913 h⁻¹
